We go through 23 molecules from patent US20240217969A1, “SUBSTITUTED PYRROLE CARBOXAMIDES, PROCESS FOR THEIR PREPARATION AND THEIR USE AS KINASE INHIBITORS” (priority 2021, published 2024).

Series [1] deals with T1, aldehyde oxidases (human liver cytosol) (Homo sapiens, UniProt Q06278).
T1 construct: added to human liver cytosol (1 mg/mL protein content); from tissue; host or cells: human liver cytosol
Type of series: in vitro ADME. The conditions noted are these: human liver cytosol 1 mg/mL, 1 μM compound; for HLC % remaining (1 h incub.): 60 min incubation; for HLC % remaining (1 h incub.) / HLC T½ min: pH 7.4, 37° C.; for IntCl (Intrinsic Clearance): half-life approach. The protocol: The aldehyde oxidases involvement in the metabolism of the test item was determined by comparison of the intrinsic clearance values in the presence and absence of aldehyde oxidases inhibitor hydralazine hydrochloride. The purpose of the study was to evaluate the in-vitro intrinsic clearance, the metabolic stability towards aldehyde oxidases (AO) activity and the metabolism of the test item in human liver cytosol. The intrinsic clearance was determined using the half-life approach, by measuring the substrate disappearance along 60 minutes incubation with human liver cytosol. Incubations were performed at the concentration of 1 μM. […] HPLC-MS/MS was used for the detection of the compound left over during the incubation. For intrinsic clearance determination samples were analyzed by high performance liquid chromatography (HPLC) on-line with mass spectrometry (MS) equipment. For the determination of aldehyde oxidases activity (i.e. positive control) of cytosol, phthalazine was incubated with human liver cytosol in presence and absence of the aldehyde oxidases inhibitor. On the day of the incubation, the compound was dissolved in DMSO at the concentration of 10 mM. Aliquots of this solution were added to the test system to a final concentration of […]. The percentage of DMSO in the final incubates was […]. Aliquots of the test item were added to human liver cytosol (1 mg/mL protein content) in Dulbecco's buffer, pH 7.4 at 37° C., to reach final concentration of 1 μM. Incubations were performed in a 48-well plate, under shaking. At 0, 5, 10, 20, 30 and 60 minutes incubation, 50 μL aliquots of the incubate were sampled, poured in 80 μL of ice-cold acetonitrile and 20 μL of 1 μM warfarin in acetonitrile (injection control) and centrifuged at 2500 rpm for 20 minutes. The supernatant was immediately analysed by LC-MS/MS.
The test item was incubated in parallel, in duplicate, at the concentration of 1 μM in Dulbecco's buffer, pH 7.4 for 60 min at 37° C. in the presence of 10 μM hydralazine hydrochloride (aldehyde oxidases inhibitor).
The chemical stability of the test item was checked in parallel by incubating the test item in single at the concentration of 1 μM in Dulbecco's buffer, pH 7.4 for 60 min at 37° C. (negative control).
The intrinsic clearance (CLint) was calculated using the half-life approach. Half-life and CLint were determined from the concentration (area counts) remaining at the different sampling points using the LC-MS/MS method. By plotting the natural logarithmic area of the compound remaining against the time, the slope was calculated by linear regression analysis and converted into the half-life (t½) and CLint expressed as μL/min/mg protein according to the following formulae: […]

Another series has as its target Cdc7 (Homo sapiens, UniProt O00311). As to the kind of experiment: Cdc7 biochemical assay, ADPGlo assay format. The protocol:
The biochemical activity of compounds was determined by incubation with specific enzymes and substrate, followed by quantification of the ADP product. Compounds were 4-fold serially diluted from 10 to 0.0006 uM; in the case of the pre-incubation step, the enzyme is added to the inhibitor solution and the mixture is left to incubate for 30 minutes at room temperature (r.t.). The reaction started with the addition of the substrate and the ATP, when the enzyme was already present in the preincubation step, or substrate, ATP and enzyme when the preincubation step was not present. The concentrations of ATP, substrate and reaction buffer are described above. The assays were run in a robotized format on 384-well plates. […] At the end of the incubation time, an equal volume of ADPGlo Reagent 1 (Promega) was added to stop the reaction and to remove all unreacted ATP. After 60 minutes, an equal volume of ADPGlo Reagent 2 (Promega) was added to convert ADP in ATP and then ATP in light by luciferase reaction.
y=bottom+(top−bottom)/(1+10^((log IC50−x)*slope))
where x is the logarithm of the inhibitor concentration, y is the response; y starts at bottom and goes to top with a sigmoid shape.
In general terms: ADP-Glo turns the ADP formed in a reaction into a luminescent signal.

Chain of Cdc7 (O00311 whole entry): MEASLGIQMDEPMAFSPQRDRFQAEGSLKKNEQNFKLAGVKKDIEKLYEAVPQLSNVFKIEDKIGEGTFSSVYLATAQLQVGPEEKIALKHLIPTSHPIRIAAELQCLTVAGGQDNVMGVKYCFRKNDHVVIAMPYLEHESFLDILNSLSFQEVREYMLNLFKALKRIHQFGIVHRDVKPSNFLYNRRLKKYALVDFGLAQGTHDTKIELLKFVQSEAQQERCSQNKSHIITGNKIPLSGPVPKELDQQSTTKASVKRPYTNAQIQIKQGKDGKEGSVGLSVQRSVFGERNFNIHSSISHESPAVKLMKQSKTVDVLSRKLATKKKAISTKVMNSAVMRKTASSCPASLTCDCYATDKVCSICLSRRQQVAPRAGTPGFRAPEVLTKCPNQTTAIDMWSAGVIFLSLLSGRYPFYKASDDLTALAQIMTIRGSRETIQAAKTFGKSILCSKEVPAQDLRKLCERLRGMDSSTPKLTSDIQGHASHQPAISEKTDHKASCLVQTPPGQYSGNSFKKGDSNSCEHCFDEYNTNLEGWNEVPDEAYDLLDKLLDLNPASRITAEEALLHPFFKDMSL
Chain of Cdc7 (Q9UBU7 whole entry partner): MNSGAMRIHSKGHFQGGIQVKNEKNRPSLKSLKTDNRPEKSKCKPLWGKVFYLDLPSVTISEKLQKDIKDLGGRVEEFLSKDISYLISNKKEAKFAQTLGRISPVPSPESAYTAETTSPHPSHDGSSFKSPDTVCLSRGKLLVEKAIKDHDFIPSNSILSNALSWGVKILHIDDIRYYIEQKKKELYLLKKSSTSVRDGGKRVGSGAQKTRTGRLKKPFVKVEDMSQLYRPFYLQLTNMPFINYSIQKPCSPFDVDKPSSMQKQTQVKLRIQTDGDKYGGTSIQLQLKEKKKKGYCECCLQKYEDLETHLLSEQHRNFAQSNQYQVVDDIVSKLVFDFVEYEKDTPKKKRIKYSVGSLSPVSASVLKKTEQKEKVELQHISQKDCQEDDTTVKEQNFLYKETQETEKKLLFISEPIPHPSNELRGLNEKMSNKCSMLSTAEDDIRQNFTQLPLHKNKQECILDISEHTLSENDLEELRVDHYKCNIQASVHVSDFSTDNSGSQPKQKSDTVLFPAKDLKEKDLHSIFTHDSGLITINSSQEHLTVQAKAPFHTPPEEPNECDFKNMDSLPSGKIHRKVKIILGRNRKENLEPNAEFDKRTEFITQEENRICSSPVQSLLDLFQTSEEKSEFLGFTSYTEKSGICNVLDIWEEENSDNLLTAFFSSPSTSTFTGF
T1 sequence (Q06278 whole entry): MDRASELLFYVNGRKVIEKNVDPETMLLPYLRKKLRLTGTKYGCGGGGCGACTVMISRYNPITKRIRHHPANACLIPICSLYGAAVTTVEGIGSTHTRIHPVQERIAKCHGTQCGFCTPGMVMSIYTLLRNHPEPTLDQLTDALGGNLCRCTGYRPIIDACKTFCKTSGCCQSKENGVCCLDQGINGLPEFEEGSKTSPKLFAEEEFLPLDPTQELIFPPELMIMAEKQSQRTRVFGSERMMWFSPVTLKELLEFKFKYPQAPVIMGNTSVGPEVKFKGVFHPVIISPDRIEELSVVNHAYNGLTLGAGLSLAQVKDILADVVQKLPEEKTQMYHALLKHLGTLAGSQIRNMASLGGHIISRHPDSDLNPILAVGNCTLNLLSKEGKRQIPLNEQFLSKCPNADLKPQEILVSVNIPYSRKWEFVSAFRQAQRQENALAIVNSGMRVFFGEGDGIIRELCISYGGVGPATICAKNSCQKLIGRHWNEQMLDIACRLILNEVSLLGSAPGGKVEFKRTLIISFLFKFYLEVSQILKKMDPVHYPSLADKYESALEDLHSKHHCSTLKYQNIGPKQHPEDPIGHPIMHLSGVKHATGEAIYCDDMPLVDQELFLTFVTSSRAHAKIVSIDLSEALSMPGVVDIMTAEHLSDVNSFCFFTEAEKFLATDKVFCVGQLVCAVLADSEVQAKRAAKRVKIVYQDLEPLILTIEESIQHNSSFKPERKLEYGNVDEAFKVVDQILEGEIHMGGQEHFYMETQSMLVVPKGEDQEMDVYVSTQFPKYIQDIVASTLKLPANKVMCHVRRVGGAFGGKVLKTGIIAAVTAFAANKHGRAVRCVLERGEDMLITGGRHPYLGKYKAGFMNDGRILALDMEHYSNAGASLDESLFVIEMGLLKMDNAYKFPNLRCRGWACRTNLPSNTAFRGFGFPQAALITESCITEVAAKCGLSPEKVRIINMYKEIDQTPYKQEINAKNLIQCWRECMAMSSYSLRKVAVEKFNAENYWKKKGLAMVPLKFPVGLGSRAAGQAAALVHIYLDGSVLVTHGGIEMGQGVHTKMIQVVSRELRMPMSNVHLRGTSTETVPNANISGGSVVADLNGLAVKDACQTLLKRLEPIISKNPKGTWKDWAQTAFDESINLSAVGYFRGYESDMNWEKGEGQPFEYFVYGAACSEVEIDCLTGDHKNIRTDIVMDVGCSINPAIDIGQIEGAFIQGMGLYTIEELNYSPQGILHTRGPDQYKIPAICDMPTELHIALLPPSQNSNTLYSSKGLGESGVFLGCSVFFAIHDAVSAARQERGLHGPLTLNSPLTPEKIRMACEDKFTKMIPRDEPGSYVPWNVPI

Regarding `NC(=O)c1cc(-c2ccnc3[nH]ccc23)[nH]c1-c1cccc(Cl)c1F` [comp 1, 2-(3-chloro-2-fluorophenyl)-5-(1H-pyrrolo[2,3-b]pyridin-4-yl)-1H-pyrrole-3-carboxamide], in series [1], the “HLC % remaining (1 h incub.)” value is 100%, the “IntCl (Intrinsic Clearance)” value is 2.9 μL/min/mg protein and the “HLC T½ min” value is 3.98 h. Further, on Cdc7, the IC50 (in general, the point on the concentration scale where inhibition reaches its midpoint) stood at 4 nM.

For the molecule `NC(=O)c1cc(-c2ccnc3[nH]ccc23)[nH]c1-c1ccc(Cl)cc1F` [comp 2, 2-(4-chloro-2-fluorophenyl)-5-(1H-pyrrolo[2,3-b]pyridin-4-yl)-1H-pyrrole-3-carboxamide], in series [1], the “HLC % remaining (1 h incub.)” value worked out at 98%, the “IntCl (Intrinsic Clearance)” value is recorded as 2.9 μL/min/mg protein and the “HLC T½ min” value worked out at 3.98 h. At Cdc7, this molecule yielded a concentration for half-maximal inhibition (IC50) of 3 nM.

Consider `NC(=O)c1cc(-c2ccnc3[nH]ccc23)[nH]c1-c1ccc(F)cc1Cl` [comp 3, 2-(2-chloro-4-fluorophenyl)-5-(1H-pyrrolo[2,3-b]pyridin-4-yl)-1H-pyrrole-3-carboxamide], for which, in series [1], the “HLC % remaining (1 h incub.)” value is reported as 97%, the “IntCl (Intrinsic Clearance)” value was 2.9 μL/min/mg protein and the “HLC T½ min” value is 3.98 h. Also, the IC50 at Cdc7 was determined as 1 nM.

`NC(=O)c1cc(-c2ccnc3[nH]ccc23)[nH]c1-c1ccc(F)cc1F` [comp 4, 2-(2,4-difluorophenyl)-5-(1H-pyrrolo[2,3-b]pyridin-4-yl)-1H-pyrrole-3-carboxamide]: in series [1], the “HLC % remaining (1 h incub.)” value was 100%, the “IntCl (Intrinsic Clearance)” value is 2.9 μL/min/mg protein and the “HLC T½ min” value turned out to be 3.98 h. At Cdc7, this molecule had an IC50 of 4 nM.

Consider `NC(=O)c1cc(-c2ccnc3[nH]ccc23)[nH]c1-c1ccc(C(F)(F)F)cc1Cl` [comp 5, 2-[2-chloro-4-(trifluoromethyl)phenyl]-5-(1H-pyrrolo[2,3-b]pyridin-4-yl)-1H-pyrrole-3-carboxamide], for which, in series [1], the “HLC % remaining (1 h incub.)” value stood at 100%, the “IntCl (Intrinsic Clearance)” value is on record as 2.9 μL/min/mg protein and the “HLC T½ min” value stood at 3.98 h. Also, the IC50 against Cdc7 worked out at 1 nM.

For `NC(=O)c1cc(-c2ccnc3[nH]ccc23)[nH]c1-c1cccc(F)c1F` [comp 6, 2-(2,3-difluorophenyl)-5-(1H-pyrrolo[2,3-b]pyridin-4-yl)-1H-pyrrole-3-carboxamide], in series [1], the “HLC % remaining (1 h incub.)” value was 100%, the “IntCl (Intrinsic Clearance)” value was found to be 2.9 μL/min/mg protein and the “HLC T½ min” value worked out at 3.98 h. Also, the IC50 against Cdc7 is 5 nM.

Regarding `Cc1ccc(-c2[nH]c(-c3ccnc4[nH]ccc34)cc2C(=O)NCCF)c(F)c1` [comp 28, N-(fluoroethyl)-2-(2-fluoro-4-methylphenyl)-5-(1H-pyrrolo[2,3-b]pyridin-4-yl)-1H-pyrrole-3-carboxamide], the IC50 at Cdc7 amounted to 67 nM.

`Cc1ccc(-c2[nH]c(-c3ccnc4[nH]ccc34)cc2C(=O)NC2CCN(C)CC2)c(F)c1` [comp 30, 2-(2-fluoro-4-methylphenyl)-N-(1-methylpiperidin-4-yl)-5-(1H-pyrrolo[2,3-b]pyridin-4-yl)-1H-pyrrole-3-carboxamide] yielded an IC50 at Cdc7 of 3130 nM.

On Cdc7, `NC(=O)c1cc(-c2ccnc3[nH]ccc23)[nH]c1-c1cccc2c1sc1ccccc12` [comp 31, 2-(dibenzo[b,d]thiophen-4-yl)-5-(1H-pyrrolo[2,3-b]pyridin-4-yl)-1H-pyrrole-3-carboxamide] had an IC50 of 759 nM. This IC50 is about 4.1-fold lower than that of the molecule before.

`Cc1ccc(-c2[nH]c(-c3ccnc4[nH]ccc34)cc2C(N)=O)c2ccccc12` [comp 32, 2-(4-methylnaphthalen-1-yl)-5-(1H-pyrrolo[2,3-b]pyridin-4-yl)-1H-pyrrole-3-carboxamide]: the IC50 against Cdc7 is 17 nM.

Regarding `NC(=O)c1cc(-c2ccnc3[nH]ccc23)[nH]c1-c1cccc(F)c1` [comp 33, 2-(3-fluorophenyl)-5-(1H-pyrrolo[2,3-b]pyridin-4-yl)-1H-pyrrole-3-carboxamide], at Cdc7, the IC50 was 14 nM. This IC50 and that of the molecule before are within 1.5-fold of each other.

In turn, `NC(=O)c1cc(-c2ccnc3[nH]ccc23)[nH]c1-c1ccc(OC(F)(F)F)cc1` [comp 34, 5-(1H-pyrrolo[2,3-b]pyridin-4-yl)-2-[4-(trifluoromethoxy)phenyl]-1H-pyrrole-3-carboxamide] showed an IC50 against Cdc7 of 42 nM.

Consider `NC(=O)c1cc(-c2ccnc3[nH]ccc23)[nH]c1-c1csc2ccccc12` [comp 35, 2-(1-benzothiophen-3-yl)-5-(1H-pyrrolo[2,3-b]pyridin-4-yl)-1H-pyrrole-3-carboxamide], for which, on Cdc7, the IC50 was determined as 7 nM. Against the preceding molecule, the IC50 is about 6-fold lower.

Turning to `NC(=O)c1cc(-c2ccnc3[nH]ccc23)[nH]c1-c1ccc2c(c1)OCCO2` [comp 36, 2-(2,3-dihydro-1,4-benzodioxin-6-yl)-5-(1H-pyrrolo[2,3-b]pyridin-4-yl)-1H-pyrrole-3-carboxamide], half-maximal inhibition against Cdc7 (IC50) required 10 nM.

In turn, `Cc1cc(F)ccc1-c1[nH]c(-c2ccnc3[nH]ccc23)cc1C(N)=O` [comp 37, 2-(4-fluoro-2-methylphenyl)-5-(1H-pyrrolo[2,3-b]pyridin-4-yl)-1H-pyrrole-3-carboxamide] yielded an IC50 against Cdc7 of 2 nM.

Molecule `Cc1ccc(-c2[nH]c(-c3ccnc4[nH]ccc34)c(I)c2C(N)=O)c(F)c1` [comp 38, 2-(2-fluoro-4-methylphenyl)-4-iodo-5-(1H-pyrrolo[2,3-b]pyridin-4-yl)-1H-pyrrole-3-carboxamide] gave an IC50 against Cdc7 of 101 nM.

With `Cc1ccc(-c2[nH]c(-c3ccnc4[nH]ccc34)c(Br)c2C(N)=O)c(F)c1` [comp 39, 2-(2-fluoro-4-methylphenyl)-4-bromo-5-(1H-pyrrolo[2,3-b]pyridin-4-yl)-1H-pyrrole-3-carboxamide], at Cdc7, the IC50 was found to be 159 nM.

On to `CCc1c(-c2ccnc3[nH]ccc23)[nH]c(-c2ccc(C)cc2F)c1C(N)=O` [comp 40, 4-ethyl-2-(2-fluoro-4-methylphenyl)-5-(1H-pyrrolo[2,3-b]pyridin-4-yl)-1H-pyrrole-3-carboxamide], for which half-maximal inhibition on Cdc7 (IC50) was put at 717 nM.

In the case of `NC(=O)c1cc(-c2ccnc3[nH]ncc23)[nH]c1-c1ccc(Cl)cc1Cl` [compound 47, 2-(2,4-dichlorophenyl)-5-(1H-pyrazolo[3,4-b]pyridin-4-yl)-1H-pyrrole-3-carboxamide], the IC50 against Cdc7 is 4 nM. Against the preceding molecule, the IC50 is about 180-fold lower.

As to `NC(=O)c1cc(-c2ccnc3[nH]ccc23)n(CCO)c1-c1ccc(Cl)cc1Cl` [compound 54, 2-(2,4-dichlorophenyl)-1-(2-hydroxyethyl)-5-(1H-pyrrolo[2,3-b]pyridin-4-yl)-1H-pyrrole-3-carboxamide], on Cdc7, the IC50 worked out at 418 nM.

With `NC(=O)c1cc(-c2ccnc3[nH]ccc23)n(CCC(F)(F)F)c1-c1ccc(Cl)cc1Cl` [compound 55, 2-(2,4-dichlorophenyl)-5-(1H-pyrrolo[2,3-b]pyridin-4-yl)-1-(3,3,3-trifluoropropyl)-1H-pyrrole-3-carboxamide], at Cdc7, the IC50 was determined as 996 nM. Compared with the last molecule, the IC50 is about 2.4-fold higher.

Consider `Cn1c(-c2ccnc3[nH]ccc23)cc(C(N)=O)c1-c1ccc(Cl)cc1Cl` [compound 56, 2-(2,4-dichlorophenyl)-1-methyl-5-(1H-pyrrolo[2,3-b]pyridin-4-yl)-1H-pyrrole-3-carboxamide], for which, on Cdc7, the midpoint of inhibition, the IC50, lay at 14 nM.

`CCn1c(-c2ccnc3[nH]ccc23)cc(C(N)=O)c1-c1ccc(Cl)cc1Cl` [compound 57, 2-(2,4-dichlorophenyl)-1-ethyl-5-(1H-pyrrolo[2,3-b]pyridin-4-yl)-1H-pyrrole-3-carboxamide]: the IC50 against Cdc7 was 17 nM.
